From patent US7138361B2, “Herbicidal heterocycles” (E. I. du Pont de Nemours and Company, priority 2000, dated 2006)

Tests used:
Assay in all cases: Test C preemergence
Type in all cases: in vivo
Nightshade [1] = settings: Rate 250 g/ha, visual evaluation after 12 to 14 days
[2] = system: goosegrass (Eleusine indica); settings: for Plant response rating (0 to 100), Goosegrass: Rate 250 g/ha, visual evaluation after 12 to 14 days
Procedure, shortened: (§1)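 Visual 0–100 rating vs controls (0 = no effect, 100 = complete control) at 12–14 d, greenhouse. Compounds in non-phytotoxic solvent + surfactant; pre: sprayed after seeding; post: 1–4-leaf plants, 2–18 cm.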

Sunflower = system: Sunflower
[3] = system: giant foxtail (Setaria faberii); settings: for Plant response rating (0 to 100), Foxtail, Giant: Rate 250 g/ha, visual evaluation after 12 to 14 days
Procedure, shortened: as §1

[4] = system: yellow nutsedge (Cyperus esculentus); settings: for Plant response rating (0 to 100), Nutsedge: Rate 250 g/ha, visual evaluation after 12 to 14 days
Procedure, shortened: as §1

[5] = system: velvetleaf (Abutilon theophrasti); settings: for Plant response rating (0 to 100), Velvetleaf: Rate 250 g/ha, visual evaluation after 12 to 14 days
Procedure, shortened: as §1

[6] = system: common ragweed (Ambrosia elatior); settings: for Plant response rating (0 to 100), Ragweed, Common: Rate 250 g/ha, visual evaluation after 12 to 14 days
Procedure, shortened: as §1

[7] = system: bermudagrass (Cynodon dactylon); settings: for Plant response rating (0 to 100 where 0 is no effect and 100 is complete control), Bermudagrass: Rate 250 g/ha, visual evaluation after 12 to 14 days
Procedure, shortened: as §1

[8] = system: crabgrass (Digitaria sanguinalis); settings: for Plant response rating (0 to 100), Crabgrass: Rate 250 g/ha, visual evaluation after 12 to 14 days
Procedure, shortened: as §1

kochia (Kochia scoparia) = settings: for Plant response rating (0 to 100), Kochia: Rate 250 g/ha, visual evaluation after 12 to 14 days
Procedure, shortened: as §1

[9] = system: Surinam grass (Brachiaria decumbens); settings: for Plant response rating (0 to 100), Surinam grass: Rate 250 g/ha, visual evaluation after 12 to 14 days
Procedure, shortened: as §1

[10] = system: lambsquarters (Chenopodium album); settings: for Plant response rating (0 to 100), Lambsquarters: Rate 250 g/ha, visual evaluation after 12 to 14 days
Procedure, shortened: as §1

[11] = system: woolly cupgrass (Eriochloa villosa); settings: for Plant response rating (0 to 100), Cupgrass, Woolly: Rate 250 g/ha, visual evaluation after 12 to 14 days
Procedure, shortened: as §1

[12] = system: morningglory (Ipomoea hederacea); settings: for Plant response rating (0 to 100), Morningglory: Rate 250 g/ha, visual evaluation after 12 to 14 days
Procedure, shortened: as §1

[13] = system: cocklebur (Xanthium strumarium); settings: for Plant response rating (0 to 100), Cocklebur: Rate 250 g/ha, visual evaluation after 12 to 14 days
Procedure, shortened: as §1

Nightshade [14] = system: Nightshade
[15] = system: pigweed (Amaranthus retroflexus); settings: for Plant response rating (0 to 100), Pigweed: Rate 250 g/ha, visual evaluation after 12 to 14 days
Procedure, shortened: as §1

corn (Zea mays) = settings: for Plant response rating (0 to 100), Corn: Rate 250 g/ha, visual evaluation after 12 to 14 days
Procedure, shortened: as §1

[16] = system: johnsongrass (Sorghum halepense); settings: for Plant response rating (0 to 100), Johnsongrass: Rate 250 g/ha, visual evaluation after 12 to 14 days
Procedure, shortened: as §1

soybean (Glycine max) = settings: for Plant response rating (0 to 100), Soybean: Rate 250 g/ha, visual evaluation after 12 to 14 days
Procedure, shortened: as §1

[17] = Preemergence, Rate 500 g/ha, scale 0 to 100
[18] = Rate 62 g/ha, scale 0 to 100, 0 no effect, 100 complete control
[19] = preemergence, Rate 31 g/ha, scale 0 to 100
[20] = preemergence, Rate 125 g/ha, scale 0 to 100, 0 no effect, 100 complete control
[21] = Rate 125 g/ha, scale 0 to 100, 0 no effect, 100 complete control

CC(C)(C)c1ccn(C2CCN(c3cccc(OC(F)(F)F)c3)C2=O)n1 (centres unmarked) [Compound 49]
Plant response rating (0 to 100), Nightshade (Nightshade [1]): 50 | Plant response rating, Goosegrass [2, 17]: 100 | Plant response rating, Goosegrass [2, 18]: 100 | Plant response rating, Goosegrass [2, 19]: 0 | Plant response rating (0 to 100), Goosegrass ([2]; preemergence): 100 | Plant response rating, Goosegrass [2, 20]: 100 | Plant response rating, Sunflower (Sunflower; [18]): 20 | Plant response rating, Sunflower (Sunflower; Rate 500 g/ha, scale 0 to 100): 80 | Plant response rating, Foxtail, Giant [3, 17]: 100 | Plant response rating, Foxtail, Giant [3, 18]: 0 | Plant response rating, Foxtail, Giant [3, 19]: 0 | Plant response rating (0 to 100), Foxtail, Giant ([3]; preemergence): 100 | Plant response rating, Foxtail, Giant [3, 20]: 100 | Plant response rating, Nutsedge [4, 17]: 0 | Plant response rating, Nutsedge [4, 18]: 40 | Plant response rating, Nutsedge [4, 19]: 30 | Plant response rating (0 to 100), Nutsedge ([4]; preemergence): 0 | Plant response rating, Nutsedge [4, 20]: 50 | Plant response rating, Velvetleaf [5, 17]: 40 | Plant response rating, Velvetleaf [5, 18]: 0 | Plant response rating, Velvetleaf [5, 19]: 0 | Plant response rating (0 to 100), Velvetleaf ([5]; preemergence): 30 | Plant response rating, Velvetleaf [5, 20]: 0 | Plant response rating, Ragweed, Common [6, 17]: 90 | Plant response rating, Ragweed, Common [6, 18]: 0 | Plant response rating, Ragweed, Common [6, 19]: 0 | Plant response rating (0 to 100), Ragweed, Common ([6]; preemergence): 30 | Plant response rating, Ragweed, Common [6, 20]: 30 | Plant response rating, Bermudagrass [7, 17]: 100 | Plant response rating, Bermudagrass [7, 18]: 100 | Plant response rating, Bermudagrass [7, 19]: 0 | Plant response rating (0 to 100 where 0 is no effect and 100 is complete control), Bermudagrass ([7]; preemergence): 100 | Plant response rating, Bermudagrass [7, 20]: 100 | Plant response rating, Crabgrass [8, 17]: 100 | Plant response rating, Crabgrass [8, 18]: 100 | Plant response rating, Crabgrass [8, 19]: 0 | Plant response rating (0 to 100), Crabgrass ([8]; preemergence): 100 | Plant response rating, Crabgrass [8, 20]: 100 | Plant response rating, Kochia (kochia (Kochia scoparia); [17]): 100 | Plant response rating, Kochia (kochia (Kochia scoparia); [18]): 90 | Plant response rating, Kochia (kochia (Kochia scoparia); [19]): 50 | Plant response rating (0 to 100), Kochia (kochia (Kochia scoparia); preemergence): 100 | Plant response rating, Kochia (kochia (Kochia scoparia); [20]): 90 | Plant response rating, Surinam grass [9, 17]: 80 | Plant response rating, Surinam grass [9, 18]: 0 | Plant response rating, Surinam grass [9, 19]: 0 | Plant response rating (0 to 100), Surinam grass ([9]; preemergence): 70 | Plant response rating, Surinam grass [9, 20]: 0 | Plant response rating, Lambsquarters [10, 17]: 100 | Plant response rating, Lambsquarters [10, 18]: 100 | Plant response rating, Lambsquarters [10, 19]: 100 | Plant response rating (0 to 100), Lambsquarters ([10]; preemergence): 100 | Plant response rating, Lambsquarters [10, 20]: 100 | Plant response rating, Cupgrass, Woolly [11, 17]: 100 | Plant response rating, Cupgrass, Woolly [11, 18]: 30 | Plant response rating, Cupgrass, Woolly [11, 19]: 20 | Plant response rating (0 to 100), Cupgrass, Woolly ([11]; preemergence): 70 | Plant response rating, Cupgrass, Woolly [11, 20]: 60 | Plant response rating, Morningglory [12, 17]: 30 | Plant response rating, Morningglory [12, 18]: 0 | Plant response rating, Morningglory [12, 19]: 0 | Plant response rating (0 to 100), Morningglory ([12]; preemergence): 0 | Plant response rating, Morningglory [12, 20]: 0 | Plant response rating, Cocklebur [13, 17]: 20 | Plant response rating, Cocklebur [13, 18]: 0 | Plant response rating, Cocklebur [13, 19]: 0 | Plant response rating (0 to 100), Cocklebur ([13]; preemergence): 0 | Plant response rating, Cocklebur [13, 20]: 0 | Plant response rating, Nightshade (Nightshade [14]; Rate 31 g/ha, scale 0 to 100): 0 | Plant response rating, Nightshade (Nightshade [14]; [18]): 0 | Plant response rating, Nightshade (Nightshade [14]; [21]): 30 | Plant response rating, Nightshade (Nightshade [14]; Rate 500 g/ha, scale 0 to 100): 90 | Plant response rating, Pigweed [15, 17]: 100 | Plant response rating, Pigweed [15, 18]: 100 | Plant response rating, Pigweed [15, 19]: 70 | Plant response rating (0 to 100), Pigweed ([15]; preemergence): 100 | Plant response rating, Pigweed [15, 20]: 100 | Plant response rating, Corn (corn (Zea mays); [17]): 0 | Plant response rating, Corn (corn (Zea mays); [18]): 0 | Plant response rating, Corn (corn (Zea mays); [19]): 0 | Plant response rating (0 to 100), Corn (corn (Zea mays); preemergence): 0 | Plant response rating, Corn (corn (Zea mays); [20]): 0 | Plant response rating, Johnsongrass [16, 17]: 90 | Plant response rating, Johnsongrass [16, 18]: 0 | Plant response rating, Johnsongrass [16, 19]: 0 | Plant response rating (0 to 100), Johnsongrass ([16]; preemergence): 50 | Plant response rating, Johnsongrass [16, 20]: 0 | Plant response rating, Soybean (soybean (Glycine max); [17]): 80 | Plant response rating, Soybean (soybean (Glycine max); [18]): 0 | Plant response rating, Soybean (soybean (Glycine max); [19]): 0 | Plant response rating (0 to 100), Soybean (soybean (Glycine max); preemergence): 50 | Plant response rating, Soybean (soybean (Glycine max); [20]): 40

O=C1C(n2ccc(C3CCCCC3)n2)SCN1c1cccc(OC(F)(F)F)c1 (centres unmarked) [Compound 50]
Plant response rating (0 to 100), Nightshade (Nightshade [1]): 0 | Plant response rating, Goosegrass [2, 17]: 100 | Plant response rating, Goosegrass [2, 18]: 80 | Plant response rating (0 to 100), Goosegrass ([2]; preemergence): 100 | Plant response rating, Goosegrass [2, 20]: 90 | Plant response rating, Sunflower (Sunflower; [18]): 20 | Plant response rating, Sunflower (Sunflower; Rate 500 g/ha, scale 0 to 100): 60 | Plant response rating, Foxtail, Giant [3, 17]: 100 | Plant response rating, Foxtail, Giant [3, 18]: 60 | Plant response rating (0 to 100), Foxtail, Giant ([3]; preemergence): 20 | Plant response rating, Foxtail, Giant [3, 20]: 0 | Plant response rating, Nutsedge [4, 17]: 70 | Plant response rating, Nutsedge [4, 18]: 0 | Plant response rating (0 to 100), Nutsedge ([4]; preemergence): 0 | Plant response rating, Nutsedge [4, 20]: 0 | Plant response rating, Velvetleaf [5, 17]: 0 | Plant response rating, Velvetleaf [5, 18]: 0 | Plant response rating (0 to 100), Velvetleaf ([5]; preemergence): 0 | Plant response rating, Velvetleaf [5, 20]: 0 | Plant response rating, Ragweed, Common [6, 17]: 40 | Plant response rating, Ragweed, Common [6, 18]: 20 | Plant response rating (0 to 100), Ragweed, Common ([6]; preemergence): 40 | Plant response rating, Ragweed, Common [6, 20]: 30 | Plant response rating, Bermudagrass [7, 17]: 100 | Plant response rating, Bermudagrass [7, 18]: 100 | Plant response rating (0 to 100 where 0 is no effect and 100 is complete control), Bermudagrass ([7]; preemergence): 100 | Plant response rating, Bermudagrass [7, 20]: 100 | Plant response rating, Crabgrass [8, 17]: 100 | Plant response rating, Crabgrass [8, 18]: 100 | Plant response rating (0 to 100), Crabgrass ([8]; preemergence): 100 | Plant response rating, Crabgrass [8, 20]: 100 | Plant response rating, Kochia (kochia (Kochia scoparia); [17]): 20 | Plant response rating, Kochia (kochia (Kochia scoparia); [18]): 0 | Plant response rating (0 to 100), Kochia (kochia (Kochia scoparia); preemergence): 0 | Plant response rating, Kochia (kochia (Kochia scoparia); [20]): 0 | Plant response rating, Surinam grass [9, 17]: 50 | Plant response rating, Surinam grass [9, 18]: 20 | Plant response rating (0 to 100), Surinam grass ([9]; preemergence): 50 | Plant response rating, Surinam grass [9, 20]: 30 | Plant response rating, Lambsquarters [10, 17]: 70 | Plant response rating, Lambsquarters [10, 18]: 20 | Plant response rating (0 to 100), Lambsquarters ([10]; preemergence): 70 | Plant response rating, Lambsquarters [10, 20]: 50 | Plant response rating, Cupgrass, Woolly [11, 17]: 90 | Plant response rating, Cupgrass, Woolly [11, 18]: 20 | Plant response rating (0 to 100), Cupgrass, Woolly ([11]; preemergence): 90 | Plant response rating, Cupgrass, Woolly [11, 20]: 20 | Plant response rating, Morningglory [12, 17]: 30 | Plant response rating, Morningglory [12, 18]: 20 | Plant response rating (0 to 100), Morningglory ([12]; preemergence): 30 | Plant response rating, Morningglory [12, 20]: 30 | Plant response rating, Cocklebur [13, 17]: 0 | Plant response rating (0 to 100), Cocklebur ([13]; preemergence): 0 | Plant response rating, Cocklebur [13, 20]: 0 | Plant response rating, Nightshade (Nightshade [14]; [18]): 0 | Plant response rating, Nightshade (Nightshade [14]; [21]): 0 | Plant response rating, Nightshade (Nightshade [14]; Rate 500 g/ha, scale 0 to 100): 60 | Plant response rating, Pigweed [15, 17]: 90 | Plant response rating, Pigweed [15, 18]: 30 | Plant response rating (0 to 100), Pigweed ([15]; preemergence): 20 | Plant response rating, Pigweed [15, 20]: 20 | Plant response rating, Corn (corn (Zea mays); [17]): 0 | Plant response rating, Corn (corn (Zea mays); [18]): 0 | Plant response rating (0 to 100), Corn (corn (Zea mays); preemergence): 0 | Plant response rating, Corn (corn (Zea mays); [20]): 0 | Plant response rating, Johnsongrass [16, 17]: 90 | Plant response rating, Johnsongrass [16, 18]: 0 | Plant response rating (0 to 100), Johnsongrass ([16]; preemergence): 70 | Plant response rating, Johnsongrass [16, 20]: 40 | Plant response rating, Soybean (soybean (Glycine max); [17]): 40 | Plant response rating (0 to 100), Soybean (soybean (Glycine max); preemergence): 0 | Plant response rating, Soybean (soybean (Glycine max); [20]): 0
